Measurements taken from the supplement of paper PMC10307832.

Assays:
Assay in all cases: relative viability (nuclei count vs DMSO), 5 days (fraction); higher = more cells survive
Afatinib + Palbociclib = compound: CN(C)C/C=C/C(=O)Nc1cc2c(Nc3ccc(F)c(Cl)c3)ncnc2cc1O[C@H]1CCOC1 [Afatinib] + CC(=O)c1c(C)c2cnc(Nc3ccc(N4CCNCC4)cn3)nc2n(C2CCCC2)c1=O [Palbociclib] (partner 0.5 µM)
In short: (§1)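 Dosing by pin tool came one day after lung cancer cell lines were seeded in 1536-well plates, using either one drug or a fixed anchor-drug dose plus five library-drug doses (not always all listed) in √10 steps. After 5 days, nuclei were counted on 4× images. Relative viability is treated-well nuclei count divided by vehicle-well nuclei count, and values are medians of duplicate plates.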

Afatinib + Bortezomib = compound: CN(C)C/C=C/C(=O)Nc1cc2c(Nc3ccc(F)c(Cl)c3)ncnc2cc1O[C@H]1CCOC1 [Afatinib] + CC(C)C[C@H](NC(=O)[C@H](Cc1ccccc1)NC(=O)c1cnccn1)B(O)O [Bortezomib] (partner 0.002 µM)
In short: as §1

Afatinib + Foretinib = compound: CN(C)C/C=C/C(=O)Nc1cc2c(Nc3ccc(F)c(Cl)c3)ncnc2cc1O[C@H]1CCOC1 [Afatinib] + COc1cc2c(Oc3ccc(NC(=O)C4(C(=O)Nc5ccc(F)cc5)CC4)cc3F)ccnc2cc1OCCCN1CCOCC1 [Foretinib] (partner 0.25 µM)
In short: as §1

Afatinib + Pictilisib = compound: CN(C)C/C=C/C(=O)Nc1cc2c(Nc3ccc(F)c(Cl)c3)ncnc2cc1O[C@H]1CCOC1 [Afatinib] + CS(=O)(=O)N1CCN(Cc2cc3nc(-c4cccc5[nH]ncc45)nc(N4CCOCC4)c3s2)CC1 [Pictilisib] (partner 1 µM)
In short: as §1

| Cell Line | relative viability (Afatinib + Palbociclib; first compound 0.005 µM) | relative viability (Afatinib + Palbociclib; first compound 0.01581 µM) | relative viability (Afatinib + Palbociclib; first compound 0.05 µM) | relative viability (Afatinib + Palbociclib; first compound 0.1581 µM) | relative viability (Afatinib + Palbociclib; first compound 0.5 µM) | relative viability (Afatinib + Bortezomib; first compound 0.005 µM) | relative viability (Afatinib + Bortezomib; first compound 0.01581 µM) | relative viability (Afatinib + Bortezomib; first compound 0.05 µM) | relative viability (Afatinib + Bortezomib; first compound 0.1581 µM) | relative viability (Afatinib + Bortezomib; first compound 0.5 µM) | relative viability (Afatinib + Foretinib; first compound 0.005 µM) | relative viability (Afatinib + Foretinib; first compound 0.01581 µM) | relative viability (Afatinib + Foretinib; first compound 0.05 µM) | relative viability (Afatinib + Foretinib; first compound 0.1581 µM) | relative viability (Afatinib + Foretinib; first compound 0.5 µM) | relative viability (Afatinib + Pictilisib; first compound 0.005 µM) | relative viability (Afatinib + Pictilisib; first compound 0.01581 µM) | relative viability (Afatinib + Pictilisib; first compound 0.05 µM) | relative viability (Afatinib + Pictilisib; first compound 0.1581 µM) | relative viability (Afatinib + Pictilisib; first compound 0.5 µM) |
| --- | --- | --- | --- | --- | --- | --- | --- | --- | --- | --- | --- | --- | --- | --- | --- | --- | --- | --- | --- | --- |
| NCI-H522 | 1 | 1.05 | 1.15 | 0.881 | 0.675 |  |  |  |  |  |  |  |  |  |  |  |  |  |  |  |
| NCI-H596 |  |  |  |  |  | 1.15 | 1.18 | 1.11 | 0.766 | 1.01 | 0.811 | 0.952 | 0.675 | 0.643 | 0.873 | 0.35 | 0.394 | 0.4 | 0.384 | 0.415 |
| NCI-H1395 | 0.592 | 0.572 | 0.625 | 0.591 | 0.606 |  |  |  |  |  | 0.939 | 1.05 | 0.973 | 0.914 | 0.937 | 0.658 | 0.515 | 0.723 | 0.624 | 0.551 |
| NCI-H1563 |  |  |  |  |  | 0.882 | 0.774 | 0.919 | 0.694 | 0.759 | 0.891 | 0.967 | 0.933 | 0.836 | 0.87 | 0.6 | 0.644 | 0.683 | 0.637 | 0.657 |
| NCI-H1648 | 0.248 | 0.304 | 0.269 | 0.344 | 0.263 |  |  |  |  |  |  |  |  |  |  |  |  |  |  |  |
| NCI-H1703 |  |  |  |  |  | 0.414 | 0.299 | 0.343 | 0.288 | 0.281 | 0.319 |  | 0.347 | 0.361 | 0.329 | 0.239 | 0.246 | 0.263 | 0.23 | 0.205 |
| NCI-H1792 | 0.73 | 0.661 | 0.63 | 0.599 | 0.651 | 0.841 | 0.759 | 0.975 | 0.906 | 0.938 |  |  |  |  |  | 0.303 | 0.325 | 0.255 | 0.241 | 0.243 |
| NCI-H1793 | 0.258 | 0.3 | 0.273 | 0.218 | 0.21 |  |  |  |  |  | 0.621 | 0.463 | 0.401 | 0.352 | 0.353 | 0.36 | 0.23 | 0.362 | 0.39 | 0.31 |
| NCI-H1944 | 0.287 | 0.33 | 0.272 | 0.206 | 0.237 |  |  |  |  |  | 0.797 | 0.899 | 0.668 | 0.535 | 0.657 | 0.387 | 0.307 | 0.335 | 0.319 | 0.335 |
| NCI-H2170 | 0.389 | 0.357 | 0.275 | 0.139 | 0.116 |  |  |  |  |  | 0.962 | 1.01 | 0.906 | 0.369 | 0.294 | 0.285 | 0.228 | 0.237 | 0.185 | 0.209 |
| NCI-H2342 | 0.528 | 0.497 | 0.473 | 0.424 | 0.475 |  |  |  |  |  | 0.892 | 0.895 | 0.856 | 0.743 | 0.774 |  |  |  |  |  |
| SK-MES-1 | 0.305 | 0.289 | 0.306 | 0.257 | 0.257 |  |  |  |  |  | 0.905 | 0.552 | 0.596 | 0.372 | 0.448 | 0.273 | 0.238 | 0.217 | 0.213 | 0.208 |
| SW 900 | 0.464 | 0.354 | 0.438 | 0.43 | 0.49 |  |  |  |  |  | 1.06 | 1.18 | 0.873 | 0.725 | 0.679 |  |  |  |  |  |
